{
  "source": "patent US20260315416A1",
  "about": "“PHENYLLACTIC ACID COMPOSITIONS AND RELATED METHODS OF USE” (priority 2023, published 2026)",
  "key": {"[1]": {"assay": "Thermogravimetric analysis (TGA), thermal stability", "assay_type": "physicochemical", "details": "30-350° C. at 10° C./min, nitrogen", "protocol": "TA Instruments Discovery TGA 5500 (TA instruments, New Castle, DE, USA) was used to analyse pure PLA, carnitine, and various PLA ILs. The samples were accurately weighed (2-5 mg) in platinum pans and placed onto the autosampler. The samples were heated from 30° C. to 350° C. at 10° C./min; nitrogen was purged at a rate of 25 mL/min. TRIOS software (TA instruments, New Castle, DE, USA) was used to analyse the data."}, "[2]": {"assay": "Differential scanning calorimetry (DSC), glass transition temperature", "assay_type": "physicochemical", "details": "cool/heat 5° C./min, 30 to −80° C.", "protocol": "The TA Instruments DSC 2500 RCS40 cooling unit (TA instruments, New Castle, DE, USA), calibrated with indium, was used to record thermograms of pure compounds of D-PLA, L-PLA, carnitine, and their corresponding ILs. The samples were weighed (6-10 mg) and hermetically sealed in Tzero aluminium pans, along with an empty reference Tzero pan. The atmosphere was inert because of nitrogen purge at a rate of 25 mL/min. The samples were heated from 30° C. to the temperature equivalent to a 5% weight loss point with a 5° C./min ramp for each sample to observe thermal transitions. The glass transition temperature (Tg) for each sample was recorded in the cool/heat run at 5° C./min ramp from 30° C. to −80° C., and from −80° C. to 30° C. TRIOS software (TA instruments, New Castle, DE, USA) was used to analyse the data."}, "[3]": {"tested_on": "human cervical epithelial cells (A2EN)", "assay": "MTT assay for cervical cell proliferation/viability", "assay_type": "cell-based", "details": "24 h; even at 50 mM", "protocol": "(§1) Human endocervical epithelial cell line (A2EN), generated from human endocervical explant tissue^31, was cultured as monolayers in keratinocyte serum-free medium (KFSM) supplemented with recombinant epidermal growth factor (5 ng/ml), bovine pituitary extract (50 μg/ml; Gibco), CaCl2 ([…]; Sigma-Aldrich), and primocin (100 μg/ml; InvivoGen, San Diego, CA), herein referred to as A2 medium, at 37° C. under 5% carbon dioxide (CO2) atmosphere.\n(§2) Prior to cytotoxicity testing, PLA ILs were diluted to 1 M concentrations with distilled water and filtered using a sterile 0.2 μm syringe filter. Solutions with pH ranging from 4 to 7.5 were prepared by adjusting the pH of A2 media with hydrochloric acid (HCl), following filtration using a sterile 0.2 μm syringe filter.\nCervical cell monolayers were seeded into a tissue-treated 96-well microtiter plate (Corning Costar) at a density of 2.0×10^4 cells/well and incubated for 24 h at 37° C. under 5% CO2. Cells were treated with each PLA IL at concentrations ranging to 3.125 to 100 mM and incubated for 24 h (37° C. under 5% CO2). […] Absorbance was measured at 570 nm (reference 650 nm) and recorded using the Safire II Multi-Mode Microplate reader (Tecan, Mannedorf, Switzerland). Percentage cell viability was calculated as [sample absorbance−media background absorbance]/[control absorbance−media background absorbance]×100. […]"}, "[4]": {"tested_on": "human cervical epithelial cells (A2EN)", "assay": "Crystal violet staining for cervical cell morphology", "assay_type": "cell-based", "details": "24 h; even at 100 mM", "protocol": "as §1, §2\nCervical cell morphology following PLA IL treatment was visualised using 2.3% crystal violet stain with 0.1% ammonium oxalate and 20% ethanol (Sigma-Aldrich). Cervical cell monolayers were seeded into a tissue-treated 24-well microtiter plate (Falcon) at a density of 1.5×10^5 cells/well and incubated for 24 h at 37° C. under 5% CO2. Two-fold serial dilutions of each PLA IL were prepared and aliquoted into respective wells to obtain final concentrations of 3.125 to 100 mM. Deionised water and 1% Conceptrol (v/v), containing the detergent, nonoxynol-9, were used as negative and positive controls, respectively. […]"}, "[5]": {"assay": "pH determination of PLA ILs dissolved in water", "assay_type": "physicochemical", "protocol": "(§3) The equilibrium solubility of D-PLA, L-PLA, and their ILs was determined using a previously reported method.^30 An excess amount of D-PLA, L-PLA, or their ILs was added in an Eppendorf tube along with 1 mL of water. The sample was placed on an orbital shaker and was equilibrated at room temperature for 24 h with a speed of 200 rpm. After 24 h, the samples were centrifuged, the supernatant was filtered using a 0.22 μm syringe filter and further diluted using methanol as necessary. The D-PLA or L-PLA content in the supernatant was analyzed using the HPLC method to calculate the equilibrium solubility. Further, the pH values of D-PLA, L-PLA, and their ILs dissolved in water were determined using a VWR 1100L pH meter."}, "[6]": {"assay": "Kinetic solubility in water", "assay_type": "physicochemical", "details": "vs equilibrium solubility"}, "bacteria and fungi": {"tested_on": "bacteria and fungi", "details": "D-PLA vs L-PLA; cited from earlier work"}, "[7]": {"assay": "Equilibrium (saturation) solubility in water", "assay_type": "physicochemical", "details": "room temperature, HPLC; for saturation/equilibrium solubility in water: 24 h, 1440 min", "protocol": "To evaluate the purity of the synthesized D- or L-PLA ILs and for the determination of their water solubility, a reverse phase-HPLC method was developed. The HPLC apparatus consisted of a Shimadzu LC2050C-3D system with a PDA detector. Samples were run through a C18 precolumn and a Gemini C18 reverse-phase column [150×4.5 mm (ID.)] with 5 μm particle size packing (Phenomenex, Torrance, CA). The mobile phase contained acetonitrile and 20 mM phosphoric acid solution in water (25:75). The flow rate of the mobile phase was at 0.8 mL/min, the column oven was set at 45° C., the injection volume was 10 μL, and the detection was carried out at 210 nm. The retention time for PLA was 5.5 min. For the standard curve, D- or L-PLA stock solutions (0.1 mg/mL) were prepared in methanol. The stock solutions were diluted to obtain solutions of various concentrations. The standard curve was obtained by injecting 5-25 μg/mL of PLA. All the experiments were performed in triplicate.\nas §3"}, "[8]": {"tested_on": "urogenital pathogens (Streptococcus agalactiae, Klebsiella pneumoniae, Candida albicans)", "details": "in vitro; gram-positive, gram-negative and fungal urogenital pathogens; cited from earlier work"}, "[9]": {"tested_on": "peroxisome proliferator-activated receptor γ (PPAR-γ)", "details": "mouse model, early-life antibiotic exposure and high-fat diet; cited from earlier work"}, "[10]": {"tested_on": "Salmonella enterica serovar Typhimurium-induced colitis", "details": "mice; cited from earlier work"}, "[11]": {"tested_on": "cervicovaginal epithelial barrier", "details": "cited from earlier work"}},
  "data": [
    {"smiles": "C[N+](C)(C)CCO.O=C([O-])[C@H](O)Cc1ccccc1", "note": "[Chol:D-PLA (1:1)]", "values": [
      {"measurement": "T5% (onset temperature at 5% mass loss)", "setting": "[1]", "value": 94.3, "unit": "°C"},
      {"measurement": "glass transition temperature (Tg)", "setting": "[2]", "value": "−63.53", "unit": "°C"},
      {"measurement": "cell viability", "setting": "[3]", "value": "did not significantly reduce cervical epithelial cell viability"},
      {"measurement": "morphological changes", "setting": "[4]", "value": "no morphological changes were observed"},
      {"measurement": "pH", "setting": "[5]", "value": "~ 9"}
    ]},
    {"smiles": "O=C(O)[C@H](O)Cc1ccccc1", "note": "[D-PLA]", "values": [
      {"measurement": "kinetic solubility in water", "setting": "[6]", "value": "considerably lower"},
      {"measurement": "antimicrobial activity of enantiomer", "setting": "bacteria and fungi", "value": "greater antimicrobial activity than L-PLA"},
      {"measurement": "saturation/equilibrium solubility in water", "setting": "[7]", "value": "> 25", "unit": "mg/mL"},
      {"measurement": "solubility thermodynamic at 24 h", "setting": "[7]", "value": "33.1 ± 0.44", "unit": "mg/mL"}
    ]},
    {"smiles": "O=C(O)[C@@H](O)Cc1ccccc1", "note": "[L-PLA]", "values": [
      {"measurement": "T5% (onset temperature at 5% mass loss)", "setting": "[1]", "value": 156.07, "unit": "°C"},
      {"measurement": "kinetic solubility in water", "setting": "[6]", "value": "considerably lower"},
      {"measurement": "saturation/equilibrium solubility in water", "setting": "[7]", "value": "> 25", "unit": "mg/mL"},
      {"measurement": "solubility thermodynamic at 24 h", "setting": "[7]", "value": "25.7 ± 1.02", "unit": "mg/mL"}
    ]},
    {"smiles": "O=C(O)C(O)Cc1ccccc1", "note": "(centres unmarked) [PLA, 2-hydroxy-3-phenylpropanoic acid]", "values": [
      {"measurement": "antimicrobial properties", "setting": "[8]", "value": "exhibits antimicrobial properties"},
      {"measurement": "PPAR-γ activity", "setting": "[9]", "value": "upregulates intestinal peroxisome proliferator-activated receptor γ (PPAR-γ) activity"},
      {"measurement": "kinetic solubility in water", "setting": "[6]", "value": "low kinetic solubility in water"},
      {"measurement": "protection against colitis", "setting": "[10]", "value": "protect against Salmonella enterica serovar Typhimurium-induced colitis in mice"}
    ]},
    {"smiles": "C[N+](C)(C)C[C@H](O)CC(=O)[O-]", "note": "[carnitine]", "values": [
      {"measurement": "T5% (onset temperature at 5% mass loss)", "setting": "[1]", "value": 189.9, "unit": "°C"}
    ]},
    {"smiles": "CC(O)C(=O)O", "note": "(centres unmarked) [lactic acid]", "values": [
      {"measurement": "anti-inflammatory activity", "setting": "[11]", "value": "anti-inflammatory activity"},
      {"measurement": "epithelial barrier integrity", "setting": "[11]; physiological concentrations, tight junction protein expression", "value": "enhance cervicovaginal epithelial barrier integrity"}
    ]}
  ]
}
